Patent publication US6106864A, “Pharmaceutical formulations containing darifenacin” (Pfizer Inc., priority 1995, dated 2000)

Tested on: muscarinic M3 receptors over M1 receptors
Assay: Selectivity for muscarinic M3 receptors over M1 receptors
Details: metabolite compared with darifenacin; "It appears"

- less selective for muscarinic M3 receptors over M1 receptors in comparison with darifenacin: 6 fold
Compound: NC(=O)C(c1ccccc1)(c1ccccc1)[C@@H]1CCN(CCc2ccc3c(c2)C(O)CO3)C1 (stereo partly shown) [metabolite]
